Assay results published in patent US20230074545A1, “TREATMENT OF CANCER WITH CDK12/13 INHIBITORS” (Kinnate Biopharma Inc., priority 2019, published 2023).

Columns and labels:
Test in all cases: Radiometric kinase panel
Type in all cases: biochemical
MKK6 SDTD = target: T1, MKK6 SDTD (Homo sapiens, UniProt P52564, S207D/T211D)
T1 construct: either as full-length or enzymatically active fragments; purchased ProQinase GmbH (Reaction Biology); host or cells: Sf9 insect cells or E. coli (not specified per kinase)
T1 sequence (P52564 whole entry S207D/T211D, the tested form may be a part): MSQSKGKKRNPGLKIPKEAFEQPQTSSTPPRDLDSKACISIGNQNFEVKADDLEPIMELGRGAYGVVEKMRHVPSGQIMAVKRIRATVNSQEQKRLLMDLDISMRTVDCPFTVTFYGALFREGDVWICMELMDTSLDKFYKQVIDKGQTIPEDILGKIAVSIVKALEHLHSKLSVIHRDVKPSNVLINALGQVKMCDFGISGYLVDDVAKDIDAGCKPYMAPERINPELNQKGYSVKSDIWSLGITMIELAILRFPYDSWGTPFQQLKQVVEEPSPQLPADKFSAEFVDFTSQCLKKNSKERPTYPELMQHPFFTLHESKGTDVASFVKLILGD
Procedure: (§1) The compounds 1-5 (see Table 1) were assayed for kinase activity at ProQinase (ProQinase GmbH, Reaction Biology; Freiburg, Germany) using their commercially available radiometric kinase assay services. Briefly, the compounds were provided as solids and were dissolved to 1×10^−03 M/100% DMSO stock solutions on the day of assay. All protein kinases were provided by ProQinase and were expressed in Sf9 insect cells or in E. coli as recombinant GST-fusion proteins or His-tagged proteins, either as full-length or enzymatically active fragments. All kinases were produced from human cDNAs and purified by either GSH-affinity chromatography or immobilized metal. The purity of the protein kinases was examined by SDS-PAGE/Coomassie staining, the identity was checked by mass spectroscopy. A radiometric protein kinase assay (^33PanQinase® Activity Assay) was used for measuring the kinase activity of the protein kinase. All kinase assays were performed in 96-well FlashPlates™ from PerkinElmer (Boston, Mass., USA) in a 50 microliter reaction volume. The reaction cocktail was pipetted in four steps in the following order: 1) 25 microliter of assay buffer (standard buffer/[gamma-^33P]-ATP); 2) 10 microliter of ATP solution (in H2O); 3) 5 microliter of test compound (in 10% DMSO); 4) 10 microliter of enzyme/substrate mixture.
(§2) Compound 4 was analyzed for selectivity against a panel of other kinases at ProQinase using their commercially available radiometric kinase assay services and the methods described in Example 1.

CDC42BPB = target: T2, CDC42BPB (Homo sapiens, UniProt Q9Y5S2)
T2 construct: either as full-length or enzymatically active fragments; purchased ProQinase GmbH (Reaction Biology)
Procedure: as §1, §2

STK33 = target: T3, STK33 (Homo sapiens, UniProt Q9BYT3)
T3 construct: either as full-length or enzymatically active fragments; purchased ProQinase GmbH (Reaction Biology)
Procedure: as §1, §2

PAK3 = target: T4, PAK3 (Homo sapiens, UniProt O75914)
T4 construct: purchased ProQinase GmbH (Reaction Biology); host or cells: Sf9 insect cells or E. coli (not specified per kinase)
Procedure: as §1, §2

CK1gamma3 = target: T5, CK1gamma3 (Homo sapiens, UniProt Q9Y6M4)
T5 construct: either as full-length or enzymatically active fragments; purchased ProQinase GmbH (Reaction Biology)
Procedure: as §1, §2

PKCtheta = target: T6, PKCtheta (Homo sapiens, UniProt Q04759)
T6 construct: purchased ProQinase GmbH (Reaction Biology); host or cells: Sf9 insect cells or E. coli (not specified per kinase)
T6 sequence (Q04759 whole entry): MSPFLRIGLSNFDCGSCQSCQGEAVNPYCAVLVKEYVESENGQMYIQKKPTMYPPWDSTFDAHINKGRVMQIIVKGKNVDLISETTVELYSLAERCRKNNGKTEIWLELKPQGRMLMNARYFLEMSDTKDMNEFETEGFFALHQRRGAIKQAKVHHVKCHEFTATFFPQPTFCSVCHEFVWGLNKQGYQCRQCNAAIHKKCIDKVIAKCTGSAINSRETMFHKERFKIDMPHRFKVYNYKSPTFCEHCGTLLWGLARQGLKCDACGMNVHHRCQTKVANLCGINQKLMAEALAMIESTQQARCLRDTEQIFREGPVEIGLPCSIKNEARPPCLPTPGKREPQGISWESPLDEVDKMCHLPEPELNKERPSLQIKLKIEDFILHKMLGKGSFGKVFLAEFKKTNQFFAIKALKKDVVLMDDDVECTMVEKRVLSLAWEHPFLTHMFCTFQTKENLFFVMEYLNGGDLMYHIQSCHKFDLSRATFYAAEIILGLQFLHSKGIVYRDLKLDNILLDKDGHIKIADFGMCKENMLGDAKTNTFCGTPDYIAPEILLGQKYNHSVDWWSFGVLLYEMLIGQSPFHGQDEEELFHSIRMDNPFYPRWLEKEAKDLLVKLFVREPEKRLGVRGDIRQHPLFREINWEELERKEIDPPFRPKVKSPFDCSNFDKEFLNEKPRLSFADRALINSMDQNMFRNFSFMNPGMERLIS
Procedure: as §1, §2

BRK = target: T7, BRK (Homo sapiens, UniProt Q13882)
T7 construct: purchased ProQinase GmbH (Reaction Biology); host or cells: Sf9 insect cells or E. coli (not specified per kinase)
Procedure: as §1, §2

STK23 = target: T8, STK23 (Homo sapiens, UniProt Q9UPE1)
T8 construct: either as full-length or enzymatically active fragments; purchased ProQinase GmbH (Reaction Biology)
Procedure: as §1, §2

PRK1 = target: T9, PRK1 (Homo sapiens, UniProt Q16512)
T9 construct: purchased ProQinase GmbH (Reaction Biology)
T9 sequence (Q16512 whole entry): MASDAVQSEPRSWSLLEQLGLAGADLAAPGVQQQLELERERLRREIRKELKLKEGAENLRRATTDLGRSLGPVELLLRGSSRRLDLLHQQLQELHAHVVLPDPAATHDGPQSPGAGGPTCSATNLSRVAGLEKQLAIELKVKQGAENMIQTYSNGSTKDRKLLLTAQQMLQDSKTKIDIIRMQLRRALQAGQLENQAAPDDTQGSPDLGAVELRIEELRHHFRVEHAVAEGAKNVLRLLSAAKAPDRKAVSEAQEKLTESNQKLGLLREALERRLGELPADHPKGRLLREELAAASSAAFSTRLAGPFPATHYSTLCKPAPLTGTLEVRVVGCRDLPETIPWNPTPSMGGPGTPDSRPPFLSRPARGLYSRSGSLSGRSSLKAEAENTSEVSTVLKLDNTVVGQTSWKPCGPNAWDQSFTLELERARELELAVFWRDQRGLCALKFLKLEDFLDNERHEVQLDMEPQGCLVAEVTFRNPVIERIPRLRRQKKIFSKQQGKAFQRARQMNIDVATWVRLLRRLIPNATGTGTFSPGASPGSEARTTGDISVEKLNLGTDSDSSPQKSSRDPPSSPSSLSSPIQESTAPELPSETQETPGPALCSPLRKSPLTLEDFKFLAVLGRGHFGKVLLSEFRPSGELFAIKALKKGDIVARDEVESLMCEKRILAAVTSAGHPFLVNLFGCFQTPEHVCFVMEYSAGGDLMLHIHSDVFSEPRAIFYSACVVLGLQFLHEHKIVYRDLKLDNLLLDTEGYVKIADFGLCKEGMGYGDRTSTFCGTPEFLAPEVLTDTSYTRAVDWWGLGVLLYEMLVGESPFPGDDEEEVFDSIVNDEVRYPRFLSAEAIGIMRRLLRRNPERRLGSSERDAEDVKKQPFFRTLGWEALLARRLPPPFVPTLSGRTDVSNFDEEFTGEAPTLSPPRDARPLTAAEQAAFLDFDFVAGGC
Procedure: as §1, §2

RET = target: T10, RET (Homo sapiens, UniProt P07949)
T10 construct: either as full-length or enzymatically active fragments; purchased ProQinase GmbH (Reaction Biology)
Procedure: as §1, §2

PKCzeta = target: T11, PKCzeta (Homo sapiens, UniProt Q05513)
T11 construct: either as full-length or enzymatically active fragments; purchased ProQinase GmbH (Reaction Biology)
Procedure: as §1, §2

SAK = target: T12, SAK (Homo sapiens, UniProt O00444)
T12 construct: either as full-length or enzymatically active fragments; purchased ProQinase GmbH (Reaction Biology)
Procedure: as §1, §2

CSK = target: T13, CSK (Homo sapiens, UniProt P41240)
T13 construct: either as full-length or enzymatically active fragments; purchased ProQinase GmbH (Reaction Biology)
Procedure: as §1, §2

MST4 = target: T14, MST4 (Homo sapiens, UniProt Q9P289)
T14 construct: either as full-length or enzymatically active fragments; purchased ProQinase GmbH (Reaction Biology)
Procedure: as §1, §2

TLK1 = target: T15, TLK1 (Homo sapiens, UniProt Q9UKI8)
T15 construct: purchased ProQinase GmbH (Reaction Biology)
T15 sequence (Q9UKI8 whole entry): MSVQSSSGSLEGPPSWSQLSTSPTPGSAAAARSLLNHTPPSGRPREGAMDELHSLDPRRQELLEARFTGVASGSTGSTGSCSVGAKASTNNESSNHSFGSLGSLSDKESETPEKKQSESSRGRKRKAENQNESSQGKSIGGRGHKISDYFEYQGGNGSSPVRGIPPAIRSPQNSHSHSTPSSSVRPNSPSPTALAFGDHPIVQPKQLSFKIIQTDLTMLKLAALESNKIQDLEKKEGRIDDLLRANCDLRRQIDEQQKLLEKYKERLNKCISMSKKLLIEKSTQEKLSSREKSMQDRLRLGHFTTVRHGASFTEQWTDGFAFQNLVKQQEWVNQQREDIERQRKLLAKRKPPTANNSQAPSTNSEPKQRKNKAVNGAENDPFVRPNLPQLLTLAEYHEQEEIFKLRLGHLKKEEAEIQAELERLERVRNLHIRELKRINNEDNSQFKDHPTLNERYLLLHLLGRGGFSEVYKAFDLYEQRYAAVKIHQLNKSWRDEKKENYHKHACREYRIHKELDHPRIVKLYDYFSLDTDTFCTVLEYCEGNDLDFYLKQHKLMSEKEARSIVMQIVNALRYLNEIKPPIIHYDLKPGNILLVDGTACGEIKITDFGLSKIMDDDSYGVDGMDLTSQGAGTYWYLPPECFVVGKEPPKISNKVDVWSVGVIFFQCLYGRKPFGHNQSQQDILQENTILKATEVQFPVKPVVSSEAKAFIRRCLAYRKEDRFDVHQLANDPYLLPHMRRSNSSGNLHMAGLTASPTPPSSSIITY
Procedure: as §1, §2

CHK2 = target: T16, CHK2 (Homo sapiens, UniProt O96017)
T16 construct: either as full-length or enzymatically active fragments; purchased ProQinase GmbH (Reaction Biology)
Procedure: as §1, §2

LCK = target: T17, LCK (Homo sapiens, UniProt P06239)
T17 construct: either as full-length or enzymatically active fragments; purchased ProQinase GmbH (Reaction Biology)
Procedure: as §1, §2

ERK5 = target: T18, ERK5 (Homo sapiens, UniProt Q13164)
T18 construct: either as full-length or enzymatically active fragments; purchased ProQinase GmbH (Reaction Biology)
Procedure: as §1, §2

BRAF = target: T19, BRAF (Homo sapiens, UniProt P15056)
T19 construct: purchased ProQinase GmbH (Reaction Biology)
Procedure: as §1, §2

CK1gamma1 = target: T20, CK1gamma1 (Homo sapiens, UniProt Q9HCP0)
T20 construct: either as full-length or enzymatically active fragments; purchased ProQinase GmbH (Reaction Biology)
Procedure: as §1, §2

RIPK4 = target: T21, RIPK4 (Homo sapiens, UniProt P57078)
T21 construct: either as full-length or enzymatically active fragments; purchased ProQinase GmbH (Reaction Biology)
Procedure: as §1, §2

GSK3alpha = target: T22, GSK3alpha (Homo sapiens, UniProt P49840)
T22 construct: either as full-length or enzymatically active fragments; purchased ProQinase GmbH (Reaction Biology)
T22 sequence (P49840 whole entry, the tested form may be a part): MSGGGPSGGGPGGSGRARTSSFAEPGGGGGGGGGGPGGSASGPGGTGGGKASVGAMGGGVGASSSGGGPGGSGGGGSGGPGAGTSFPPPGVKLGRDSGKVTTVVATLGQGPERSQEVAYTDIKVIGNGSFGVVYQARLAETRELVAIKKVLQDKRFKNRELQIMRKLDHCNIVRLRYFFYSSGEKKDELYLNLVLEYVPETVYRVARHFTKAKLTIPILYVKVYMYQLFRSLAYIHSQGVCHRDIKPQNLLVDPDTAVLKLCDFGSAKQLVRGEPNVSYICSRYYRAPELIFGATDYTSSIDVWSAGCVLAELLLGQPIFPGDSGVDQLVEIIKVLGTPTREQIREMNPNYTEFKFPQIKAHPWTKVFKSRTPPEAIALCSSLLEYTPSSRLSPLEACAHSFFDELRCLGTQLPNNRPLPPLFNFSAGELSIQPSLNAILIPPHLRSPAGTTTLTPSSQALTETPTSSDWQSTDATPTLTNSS
Procedure: as §1, §2

S6Kbeta = target: T23, S6Kbeta (Homo sapiens, UniProt Q9UBS0)
T23 construct: purchased ProQinase GmbH (Reaction Biology); host or cells: Sf9 insect cells or E. coli (not specified per kinase)
Procedure: as §1, §2

BLK = target: T24, BLK (Homo sapiens, UniProt P51451)
T24 construct: purchased ProQinase GmbH (Reaction Biology)
T24 sequence (P51451 whole entry): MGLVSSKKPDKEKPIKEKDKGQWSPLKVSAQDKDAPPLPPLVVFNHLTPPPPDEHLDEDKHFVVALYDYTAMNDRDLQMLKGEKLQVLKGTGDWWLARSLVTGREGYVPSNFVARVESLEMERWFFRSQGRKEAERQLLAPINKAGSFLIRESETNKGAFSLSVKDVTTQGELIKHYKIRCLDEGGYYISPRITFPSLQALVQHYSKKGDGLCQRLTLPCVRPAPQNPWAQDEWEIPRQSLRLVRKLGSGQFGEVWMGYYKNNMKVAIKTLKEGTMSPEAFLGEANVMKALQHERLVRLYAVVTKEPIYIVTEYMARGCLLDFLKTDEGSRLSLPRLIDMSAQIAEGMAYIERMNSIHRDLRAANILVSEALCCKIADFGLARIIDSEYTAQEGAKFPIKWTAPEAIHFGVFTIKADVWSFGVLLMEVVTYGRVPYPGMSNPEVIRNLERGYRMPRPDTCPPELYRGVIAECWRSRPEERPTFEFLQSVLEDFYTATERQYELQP
Procedure: as §1, §2

CAMK2D = target: T25, CAMK2D (Homo sapiens, UniProt Q13557)
T25 construct: purchased ProQinase GmbH (Reaction Biology)
Procedure: as §1, §2

NEK2 = target: T26, NEK2 (Homo sapiens, UniProt P51955)
T26 construct: either as full-length or enzymatically active fragments; purchased ProQinase GmbH (Reaction Biology)
T26 sequence (P51955 whole entry, the tested form may be a part): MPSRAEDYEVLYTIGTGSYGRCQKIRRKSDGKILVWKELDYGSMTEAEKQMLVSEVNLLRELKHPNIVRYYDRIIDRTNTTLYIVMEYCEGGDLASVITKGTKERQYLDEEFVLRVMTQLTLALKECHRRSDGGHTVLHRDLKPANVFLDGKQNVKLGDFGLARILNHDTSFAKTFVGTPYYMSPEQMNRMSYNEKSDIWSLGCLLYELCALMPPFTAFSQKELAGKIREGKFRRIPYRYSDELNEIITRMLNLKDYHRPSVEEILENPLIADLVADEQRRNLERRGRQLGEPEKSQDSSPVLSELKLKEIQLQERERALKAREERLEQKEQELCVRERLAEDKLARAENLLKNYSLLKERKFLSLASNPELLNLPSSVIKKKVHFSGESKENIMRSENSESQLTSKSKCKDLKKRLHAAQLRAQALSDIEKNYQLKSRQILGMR
Procedure: as §1, §2

SRC = target: T27, SRC (Homo sapiens, UniProt P12931)
T27 construct: either as full-length or enzymatically active fragments; purchased ProQinase GmbH (Reaction Biology)
Procedure: as §1, §2

CDK3/CycC = target: T28, CDK3/CycC (Homo sapiens, UniProt Q00526)
T28 construct: purchased ProQinase GmbH (Reaction Biology); host or cells: Sf9 insect cells or E. coli (not specified per kinase)
Procedure: as §1, §2

PLK3 = target: T29, PLK3 (Homo sapiens, UniProt Q9H4B4)
T29 construct: either as full-length or enzymatically active fragments; purchased ProQinase GmbH (Reaction Biology); host or cells: Sf9 insect cells or E. coli
Procedure: as §1, §2

INSRR = target: T30, INSRR (Homo sapiens, UniProt P14616)
T30 construct: either as full-length or enzymatically active fragments; purchased ProQinase GmbH (Reaction Biology)
Procedure: as §1, §2

ZAK = target: T31, ZAK (Homo sapiens, UniProt Q9NYL2)
T31 construct: either as full-length or enzymatically active fragments; purchased ProQinase GmbH (Reaction Biology)
T31 sequence (Q9NYL2 whole entry, the tested form may be a part): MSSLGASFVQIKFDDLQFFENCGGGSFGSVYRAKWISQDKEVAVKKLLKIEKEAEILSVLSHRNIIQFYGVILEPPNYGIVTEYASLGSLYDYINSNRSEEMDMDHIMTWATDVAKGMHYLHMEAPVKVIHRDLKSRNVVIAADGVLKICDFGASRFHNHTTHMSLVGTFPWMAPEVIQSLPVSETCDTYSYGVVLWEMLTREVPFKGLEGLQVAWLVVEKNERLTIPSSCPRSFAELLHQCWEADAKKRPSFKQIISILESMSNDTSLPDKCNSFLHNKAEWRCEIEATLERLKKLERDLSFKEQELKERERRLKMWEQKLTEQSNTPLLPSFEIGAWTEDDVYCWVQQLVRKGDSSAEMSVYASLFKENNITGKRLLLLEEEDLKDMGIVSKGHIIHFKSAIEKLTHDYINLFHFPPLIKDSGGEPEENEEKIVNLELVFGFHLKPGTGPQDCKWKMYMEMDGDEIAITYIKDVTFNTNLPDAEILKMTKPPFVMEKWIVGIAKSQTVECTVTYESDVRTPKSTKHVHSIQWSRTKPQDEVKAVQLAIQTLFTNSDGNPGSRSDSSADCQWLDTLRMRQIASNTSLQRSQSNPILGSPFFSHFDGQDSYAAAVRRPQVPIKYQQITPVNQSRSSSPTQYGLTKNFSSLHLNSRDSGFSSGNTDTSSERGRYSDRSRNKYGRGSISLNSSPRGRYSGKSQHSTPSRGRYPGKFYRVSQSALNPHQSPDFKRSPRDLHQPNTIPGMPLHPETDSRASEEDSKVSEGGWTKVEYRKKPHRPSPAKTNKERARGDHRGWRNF
Procedure: as §1, §2

C=CC(=O)Nc1ccc(C(=O)N2CC[C@@H](Nc3ncc(C#N)cn3)C2)cc1 [Compound 4, (R)-N-(4-(3-((5-cyanopyrimidin-2-yl)amino)pyrrolidine-1-carbonyl)phenyl)acrylamide]
inhibition at 1 µM (MKK6 SDTD): 11%
inhibition at 1 µM (CDC42BPB): 7%
inhibition at 1 µM (STK33): 5%
inhibition at 1 µM (PAK3): 1%
inhibition at 1 µM (CK1gamma3): -8%
inhibition at 1 µM (PKCtheta): 1%
inhibition at 1 µM (BRK): 1%
inhibition at 1 µM (STK23): 7%
inhibition at 1 µM (PRK1): -1%
inhibition at 1 µM (RET): 5%
inhibition at 1 µM (PKCzeta): -3%
inhibition at 1 µM (SAK): -11%
inhibition at 1 µM (CSK): 7%
inhibition at 1 µM (MST4): 6%
inhibition at 1 µM (TLK1): -1%
inhibition at 1 µM (CHK2): 5%
inhibition at 1 µM (LCK): -3%
inhibition at 1 µM (ERK5): 6%
inhibition at 1 µM (BRAF): 0%
inhibition at 1 µM (CK1gamma1): -11%
inhibition at 1 µM (RIPK4): -3%
inhibition at 1 µM (GSK3alpha): 6%
inhibition at 1 µM (S6Kbeta): 1%
inhibition at 1 µM (BLK): -2%
inhibition at 1 µM (CAMK2D): 0%
inhibition at 1 µM (NEK2): -8%
inhibition at 1 µM (SRC): -5%
inhibition at 1 µM (CDK3/CycC): 1%
inhibition at 1 µM (PLK3): 13%
inhibition at 1 µM (INSRR): 5%
inhibition at 1 µM (ZAK): -4%
